From patent publication US20260078130A1, “NAMPT MODULATORS, PREPARATIONS, AND USES THEREOF” (SIRONAX LTD., priority 2022, published 2026) come the findings set out here.

The target of the assay is T1, human enzyme NAMPT (full length) (Homo sapiens, UniProt P43490).
T1 construct: human enzyme NAMPT (full length)
The assay can be described thus: NMN fluorescence biochemical assay (stimulation of NMN synthesis by NAMPT). To be noted: for EC50: concentration giving half-maximal activation, read-out: Enzymatic EC50; for Enzymatic Emax: fold change of maximal activation compared to DMSO. The procedure, abridged:
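Full-length human NAMPT (100 nM) was preincubated 15 min at 37 °C with compound in 50 mM Tris-HCl pH 7.5, 10 mM MgCl2, 2 mM DTT, then reacted 1 h at 37 °C with 50 μM NAM, 100 μM PRPP, 4 mM ATP (stated solution concentrations). NMN was derivatised with acetophenone/KOH then formic acid and read at Ex/Em 382/445 nm; EC50 and Emax (fold over DMSO) reported.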

Where [1] appears, read: NMN synthesis by purified human NAMPT (100 nM).
The mark [2] stands for this setting: NMN fluorescence assay, purified human NAMPT 100 nM.

Where two headings read alike, the source gives them in different places.

T1 sequence (P43490 whole entry): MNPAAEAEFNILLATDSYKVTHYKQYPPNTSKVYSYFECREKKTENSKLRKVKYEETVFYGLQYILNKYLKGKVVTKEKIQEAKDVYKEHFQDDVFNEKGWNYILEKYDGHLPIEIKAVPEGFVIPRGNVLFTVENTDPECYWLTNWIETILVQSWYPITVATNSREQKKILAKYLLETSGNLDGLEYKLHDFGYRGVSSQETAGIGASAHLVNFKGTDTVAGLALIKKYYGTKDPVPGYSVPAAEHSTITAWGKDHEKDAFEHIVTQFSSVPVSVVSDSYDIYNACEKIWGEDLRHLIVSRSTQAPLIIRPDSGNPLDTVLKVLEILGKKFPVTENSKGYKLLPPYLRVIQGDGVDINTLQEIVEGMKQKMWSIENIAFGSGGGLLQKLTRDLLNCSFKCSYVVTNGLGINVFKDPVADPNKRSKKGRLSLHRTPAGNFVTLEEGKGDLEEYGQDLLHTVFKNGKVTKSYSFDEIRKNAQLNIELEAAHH

In the case of `Cc1cccnc1C[C@@H]1c2ccccc2C(=O)N1Cc1ccc2[nH]c(=O)oc2c1` [Compound 177, (R)-6-((1-((3-methylpyridin-2-yl)methyl)-3-oxoisoindolin-2-yl)methyl)benzo[d]oxazol-2(3H)-one], the “Enzymatic Emax” value is listed as “C (2≥C)”. The half-maximal effective concentration (EC50) under setting [1] is ≥ 5 µM.
Regarding `O=C1c2ccccc2C(Cc2ncccc2Br)N1CC1CC2(CC(O)C2)C1` (stereo not drawn) [Compound 321, 3-((3-bromopyridin-2-yl)methyl)-2-((6-hydroxyspiro[3.3]heptan-2-yl)methyl) isoindolin-1-one], the “Enzymatic Emax” value is listed as “B (3≥B>2)”. Also, the 50% effective concentration (EC50) under setting [2] was 0.5 to 5 µM.
On to `O=C1c2ccccc2C(CC2CCCC2)N1Cc1ccc2[nH]c(=O)oc2c1` (stereo not drawn) [Compound 252, 6-((1-(cyclopentylmethyl)-3-oxoisoindolin-2-yl)methyl)benzo[d]oxazol-2(3H)-one], for which the “Enzymatic Emax” value is reported as “B (3≥B>2)”. The EC50 under setting [1] lay within 0.5 to 5 µM.
As to `Cc1ccc(CN2C(=O)c3ccccc3C2Cc2c(Cl)cnn2C)cc1` (stereo not drawn) [Compound 503, 3-((4-chloro-1-methyl-1H-pyrazol-5-yl)methyl)-2-(4-methylbenzyl)isoindolin-1-one], the “Enzymatic Emax” value is recorded as “C (2≥C)”. The EC50 under setting [2] was ≥ 5 µM.
`N#Cc1nccc(Cl)c1CC1c2cc(C3COC3)ccc2C(=O)N1Cc1ccc2[nH]c(=O)oc2c1` (stereo not drawn) [Compound 285, 4-chloro-3-((6-(oxetan-3-yl)-3-oxo-2-((2-oxo-2,3-dihydrobenzo[d]oxazol-6-yl)methyl)isoindolin-1-yl)methyl)picolinonitrile]: the “Enzymatic Emax” value is “B (3≥B>2)”. Besides, under setting [1], the concentration for a half-maximal effect (EC50) was < 0.5 µM.
For the compound `Cn1ncc(Cl)c1CC1c2ccccc2C(=O)N1CC1CC2(C1)OC(=O)NC2=O` (stereo not drawn) [Compound 587, 2-((1-((4-chloro-1-methyl-1H-pyrazol-5-yl)methyl)-3-oxoisoindolin-2-yl)methyl)-5-oxa-7-azaspiro[3.4]octane-6,8-dione], the “Enzymatic Emax” value was “C (2≥C)”. The concentration for a half-maximal effect (EC50) under setting [2] is ≥ 5 µM.
Consider `Cn1ncc(Cl)c1CC1c2cc(C3CNC3)ccc2C(=O)N1Cc1ccc2[nH]nnc2c1` (stereo not drawn) [Compound 383, 2-((1H-benzo[d][1,2,3]triazol-5-yl)methyl)-5-(azetidin-3-yl)-3-((4-chloro-1-methyl-1H-pyrazol-5-yl)methyl)isoindolin-1-one], for which the “Enzymatic Emax” value is “B (3≥B>2)”. The EC50 under setting [2] is < 0.5 µM.
Take `COc1ccc(CN2C(=O)c3ccccc3C2Cc2c(Cl)cnn2C)nc1` (stereo not drawn) [Compound 529, 3-((4-chloro-1-methyl-1H-pyrazol-5-yl)methyl)-2-((5-methoxypyridin-2-yl)methyl)isoindolin-1-one]: the “Enzymatic Emax” value was “C (2≥C)”. The EC50 under setting [2] lay in the range of 0.5 to 5 µM.
As for `Cn1ncc(Cl)c1CC1c2ccccc2C(=O)N1Cc1ccc(OC(F)F)cc1` (stereo not drawn) [Compound 528, 3-((4-chloro-1-methyl-1H-pyrazol-5-yl)methyl)-2-(4-(difluoromethoxy)benzyl)isoindolin-1-one], the “Enzymatic Emax” value is “C (2≥C)”. Besides, the 50% effective concentration (EC50) under setting [2] is ≥ 5 µM.
Turning to `Cc1ccnc(Cl)c1CC1c2ccccc2C(=O)N1Cc1ccc2[nH]c(=O)oc2c1` (stereo not drawn) [Compound 263, 6-((1-((2-chloro-4-methylpyridin-3-yl)methyl)-3-oxoisoindolin-2-yl)methyl)benzo[d]oxazol-2(3H)-one], the “Enzymatic Emax” value is given as “A (A>3)”. The EC50 under setting [1] was < 0.5 µM.
For `Cn1ncc(Cl)c1CC1c2cccc(CC#N)c2C(=O)N1CC1CC2(CNC(=O)O2)C1` (stereo not drawn) [Compound 432, 2-(1-((4-chloro-1-methyl-1H-pyrazol-5-yl)methyl)-3-oxo-2-((6-oxo-5-oxa-7-azaspiro[3.4]octan-2-yl)methyl)isoindolin-4-yl)acetonitrile], the “Enzymatic Emax” value is recorded as “B (3≥B>2)”. Also, the EC50 under setting [2] was ≥ 5 µM.
Take `COc1ncc(CN2C(=O)c3ccccc3C2Cc2c(Cl)cnn2C)cc1F` (stereo not drawn) [Compound 532, 3-((4-chloro-1-methyl-1H-pyrazol-5-yl)methyl)-2-((5-fluoro-6-methoxypyridin-3-yl)methyl)isoindolin-1-one]: the “Enzymatic Emax” value is on record as “C (2≥C)”. Also, under setting [2], the EC50 was ≥ 5 µM.
